Measured values: the NIST ThermoML archive (doi:10.1021/acs.jced.8b00662)

Assay: xn = mol fraction of the nth substance listed
Conditions: 100 kPa, Liquid; for viscosity: Falling or rolling sphere viscometry; for mass density: Vibrating tube method

OCC1CC1 [cyclopropylmethanol] + c1ccc2c(c1)CCCC2
Conditions	mass density [kg/m3]	viscosity [mPa·s]
293.15 K, x2 = 0	913.02	3.988
293.15 K, x2 = 0.0993	921.89	3.498
293.15 K, x2 = 0.1972	929.26	3.134
293.15 K, x2 = 0.3008	936.02	2.837
293.15 K, x2 = 0.3978	941.84	2.622
293.15 K, x2 = 0.4986	947.21	2.449
293.15 K, x2 = 0.6031	952.27	2.318
293.15 K, x2 = 0.7031	956.72	2.229
293.15 K, x2 = 0.7981	960.63	2.182
293.15 K, x2 = 0.901	964.72	2.164
298.15 K, x2 = 0	908.96	3.455
298.15 K, x2 = 0.0993	917.77	3.039
298.15 K, x2 = 0.1972	925.12	2.734
298.15 K, x2 = 0.3008	931.86	2.49
298.15 K, x2 = 0.3978	937.67	2.313
298.15 K, x2 = 0.4986	943.05	2.173
298.15 K, x2 = 0.6031	948.12	2.068
298.15 K, x2 = 0.7031	952.59	1.997
298.15 K, x2 = 0.7981	956.53	1.963
298.15 K, x2 = 0.901	960.66	1.952
303.15 K, x2 = 0	904.87	3.009
303.15 K, x2 = 0.0993	913.62	2.656
303.15 K, x2 = 0.1972	920.94	2.402
303.15 K, x2 = 0.3008	927.67	2.2
303.15 K, x2 = 0.3978	933.47	2.053
303.15 K, x2 = 0.4986	938.85	1.94
303.15 K, x2 = 0.6031	943.94	1.855
303.15 K, x2 = 0.7031	948.44	1.8
303.15 K, x2 = 0.7981	952.41	1.774
303.15 K, x2 = 0.901	956.59	1.77
308.15 K, x2 = 0	900.74	2.635
308.15 K, x2 = 0.0993	909.43	2.338
308.15 K, x2 = 0.1972	916.73	2.123
308.15 K, x2 = 0.3008	923.44	1.958
308.15 K, x2 = 0.3978	929.24	1.836
308.15 K, x2 = 0.4986	934.63	1.747
308.15 K, x2 = 0.6031	939.74	1.675
308.15 K, x2 = 0.7031	944.26	1.633
308.15 K, x2 = 0.7981	948.28	1.613
308.15 K, x2 = 0.901	952.52	1.618
313.15 K, x2 = 0	896.59	2.321
313.15 K, x2 = 0.0993	905.22	2.068
313.15 K, x2 = 0.1972	912.49	1.889
313.15 K, x2 = 0.3008	919.19	1.754
313.15 K, x2 = 0.3978	925	1.651
313.15 K, x2 = 0.4986	930.4	1.579
313.15 K, x2 = 0.6031	935.53	1.521
313.15 K, x2 = 0.7031	940.09	1.491
313.15 K, x2 = 0.7981	944.15	1.474
313.15 K, x2 = 0.901	948.45	1.485
318.15 K, x2 = 0	892.38	2.054
318.15 K, x2 = 0.0993	900.96	1.84
318.15 K, x2 = 0.1972	908.2	1.688
318.15 K, x2 = 0.3008	914.89	1.577
318.15 K, x2 = 0.3978	920.7	1.492
318.15 K, x2 = 0.4986	926.13	1.433
318.15 K, x2 = 0.6031	931.29	1.387
318.15 K, x2 = 0.7031	935.88	1.366
318.15 K, x2 = 0.7981	939.99	1.355
318.15 K, x2 = 0.901	944.36	1.369
323.15 K, x2 = 0	888.17	1.825
323.15 K, x2 = 0.0993	896.69	1.644
323.15 K, x2 = 0.1972	903.9	1.517
323.15 K, x2 = 0.3008	910.59	1.423
323.15 K, x2 = 0.3978	916.41	1.355
323.15 K, x2 = 0.4986	921.85	1.305
323.15 K, x2 = 0.6031	927.06	1.271
323.15 K, x2 = 0.7031	931.69	1.254
323.15 K, x2 = 0.7981	935.85	1.235
323.15 K, x2 = 0.901	940.3	1.263
328.15 K, x2 = 0	883.86	1.629
328.15 K, x2 = 0.0993	892.34	1.476
328.15 K, x2 = 0.1972	899.54	1.369
328.15 K, x2 = 0.3008	906.23	1.291
328.15 K, x2 = 0.3978	912.06	1.22
328.15 K, x2 = 0.4986	917.54	1.195
328.15 K, x2 = 0.6031	922.78	1.169
328.15 K, x2 = 0.7031	927.49	1.156
328.15 K, x2 = 0.7981	931.68	1.157
328.15 K, x2 = 0.901	936.23	1.174
333.15 K, x2 = 0	879.52	1.46
333.15 K, x2 = 0.0993	887.95	1.331
333.15 K, x2 = 0.1972	895.13	1.241
333.15 K, x2 = 0.3008	901.83	1.176
333.15 K, x2 = 0.3978	907.69	1.131
333.15 K, x2 = 0.4986	913.2	1.1
333.15 K, x2 = 0.6031	918.5	1.08
333.15 K, x2 = 0.7031	923.23	1.071
333.15 K, x2 = 0.7981	927.51	1.076
333.15 K, x2 = 0.901	932.14	1.094
338.15 K, x2 = 0	875.1	1.316
338.15 K, x2 = 0.0993	883.49	1.205
338.15 K, x2 = 0.1972	890.66	1.13
338.15 K, x2 = 0.3008	897.37	1.078
338.15 K, x2 = 0.3978	903.28	1.041
338.15 K, x2 = 0.4986	908.82	1.015
338.15 K, x2 = 0.6031	914.15	1.004
338.15 K, x2 = 0.7031	918.94	0.996
338.15 K, x2 = 0.7981	923.3	1.003
338.15 K, x2 = 0.901	928.03	1.024
343.15 K, x2 = 0	870.62	1.19
343.15 K, x2 = 0.0993	878.98	1.095
343.15 K, x2 = 0.1972	886.15	1.033
343.15 K, x2 = 0.3008	892.87	0.99
343.15 K, x2 = 0.3978	898.8	0.961
343.15 K, x2 = 0.4986	904.39	0.941
343.15 K, x2 = 0.6031	909.78	0.933
343.15 K, x2 = 0.7031	914.63	0.931
343.15 K, x2 = 0.7981	919.07	0.941
343.15 K, x2 = 0.901	923.91	0.961
